The structures appear in SMILES notation.

What all share (type): biochemical
For assay [1], the target named is T1, HCV NS3/4A protease complex, J4L6S strain (Hepatitis C virus genotype 1b, UniProt O92972, C1454S/C1711G).
T1 construct: recombinant HCV NS3/4A protease complex (amino acids 1027 to 1711) for these strains; His-tag (inferred from pET21b vector and Ni-NTA purification); made in house; host or cells: Escherichia coli BL21 (DE3), pET21b
The assay is described as follows: FRET peptide assay to monitor HCV NS3/4A proteolytic activity (J4L6S strain). To be noted: J4L6S strain (1b genotype). The text has this: HCV NS3 protease complexes, derived from the BMS strain, H77 strain or J4L6S strain, were generated, as described below. These purified recombinant proteins were generated for use in a homogeneous assay (see below) to provide an indication of how effective compounds of the present disclosure would be in inhibiting HCV NS3 proteolytic activity.
The H77 and J4L6S strains were used for production of recombinant NS3/4A protease complexes. DNA encoding the recombinant HCV NS3/4A protease complex (amino acids 1027 to 1711) for these strains were manipulated as described by P. Gallinari et al. (see Gallinari P, Paolini C, Brennan D, Nardi C, Steinkuhler C, De Francesco R. Biochemistry. 38(17):5620-32, (1999)). Briefly, a three-lysine solubilizing tail was added at the 3′-end of the NS4A coding region. The cysteine in the P1 position of the NS4A-NS4B cleavage site (amino acid 1711) was changed to a glycine to avoid the proteolytic cleavage of the lysine tag. Furthermore, a cysteine to serine mutation was introduced by PCR at amino acid position 1454 to prevent the autolytic cleavage in the NS3 helicase domain. […]

Assay [2] deals with T2, porcine pancreatic elastase (PPE) (Sus scrofa, UniProt P00772).
T2 construct: purchased Sigma or EMDbiosciences
The assay is described as follows: Specificity assay, pancreatic elastase. How it is done:
(§1) The specificities of compounds of the present disclosure were determined against a variety of serine proteases: human neutrophil elastase (HNE), porcine pancreatic elastase (PPE) and human pancreatic chymotrypsin and one cysteine protease: human liver cathepsin B. In all cases, a 96-well plate format protocol using colorimetric p-nitroaniline (pNA) substrate or fluorometric Amino-Methyl-Coumarin (AMC) substrate, specific for each enzyme was used as described previously (PCT Patent Application No. WO 00/09543) with some modifications. All enzymes were purchased from Sigma or EMDbiosciences while the substrates were from Bachem.
(§2) Each pNA assay included a 2 h enzyme-inhibitor pre-incubation at room temperature followed by addition of substrate and hydrolysis to ˜15% conversion as measured on a Spectramax Pro microplate reader. The cathepsin B assay was initiated by adding substrate to a 10 min enzyme-inhibitor pre-incubation at room temperature, and the assay plate measured immediately using the Cytofluor Series 4000. Compound concentrations varied from 100 to 0.4 μM depending on their potency.
(§3) 50 mM Tris(hydroxymethyl)aminomethane hydrochloride (Tris-HCl) pH 8, 0.5 M Sodium Sulfate (Na2SO4), 50 mM NaCl, 0.1 mM EDTA, 3% DMSO, 0.01% Tween-20 with: […]
(§4) The percentage of inhibition was calculated using the formula: [1−((UVinh−UVblank)/(UVctl−UVblank))]×100 […]

Assay [3] deals with T3, human pancreatic chymotrypsin (Homo sapiens, UniProt P17538).
T3 construct: purchased Sigma or EMDbiosciences
The assay is described as follows: Specificity assay, chymotrypsin. On the procedure:
as §1, §2, §3, §4

T3 sequence (P17538 19-263): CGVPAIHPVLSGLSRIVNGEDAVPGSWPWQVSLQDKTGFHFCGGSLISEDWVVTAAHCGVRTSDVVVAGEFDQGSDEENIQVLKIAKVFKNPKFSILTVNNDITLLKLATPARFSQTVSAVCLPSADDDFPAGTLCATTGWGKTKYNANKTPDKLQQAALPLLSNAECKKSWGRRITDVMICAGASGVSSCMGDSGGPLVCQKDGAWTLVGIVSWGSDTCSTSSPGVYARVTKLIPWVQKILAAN
T1 sequence (O92972 1027-1711 C1454S/C1711G, one chain of several): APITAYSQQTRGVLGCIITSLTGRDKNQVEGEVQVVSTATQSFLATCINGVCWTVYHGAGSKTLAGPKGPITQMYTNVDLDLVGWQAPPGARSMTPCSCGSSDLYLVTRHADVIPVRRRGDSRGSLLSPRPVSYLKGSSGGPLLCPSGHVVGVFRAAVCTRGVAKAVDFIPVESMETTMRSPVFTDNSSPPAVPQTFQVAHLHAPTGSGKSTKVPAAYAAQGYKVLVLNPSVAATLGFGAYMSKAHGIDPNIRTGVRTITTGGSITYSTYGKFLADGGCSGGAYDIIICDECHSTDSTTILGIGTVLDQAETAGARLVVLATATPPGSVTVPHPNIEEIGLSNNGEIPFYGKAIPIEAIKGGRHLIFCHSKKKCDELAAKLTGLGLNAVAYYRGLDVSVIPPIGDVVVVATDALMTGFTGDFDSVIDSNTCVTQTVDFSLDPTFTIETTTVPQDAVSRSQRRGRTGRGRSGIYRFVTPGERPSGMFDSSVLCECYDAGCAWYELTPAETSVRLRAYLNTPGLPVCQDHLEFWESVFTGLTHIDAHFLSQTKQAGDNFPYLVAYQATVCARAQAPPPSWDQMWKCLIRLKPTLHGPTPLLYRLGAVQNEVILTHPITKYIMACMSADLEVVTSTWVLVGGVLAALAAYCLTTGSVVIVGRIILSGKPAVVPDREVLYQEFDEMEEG
T2 sequence (P00772 27-266): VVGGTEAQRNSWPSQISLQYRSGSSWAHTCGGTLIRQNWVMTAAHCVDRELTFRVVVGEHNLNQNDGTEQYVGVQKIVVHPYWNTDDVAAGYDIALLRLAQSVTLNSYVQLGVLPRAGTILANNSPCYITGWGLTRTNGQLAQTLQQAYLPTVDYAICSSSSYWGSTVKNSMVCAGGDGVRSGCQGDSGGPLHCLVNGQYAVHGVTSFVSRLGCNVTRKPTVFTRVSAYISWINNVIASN

Consider `CC(C)(C)OC(=O)N[C@H]1CN(C2CC2)CCC/C=C\C2C[C@@]2(C(=O)NS(=O)(=O)C2CC2)NC(=O)[C@@H]2C[C@@H](Oc3ccccn3)CN2C1=O` (stereo partly drawn) [Compound 1], for which the values for the IC50 in assay [1], in assay [2] and in assay [3] were 0.012 µM, over 100 µM and over 100 µM, respectively.
